Measured values from patent publication US6962894B1, “Herbicidal composition” (Syngenta Crop Protection, Inc., priority 1999, dated 2005).

Legend:
Assay in all cases: Post-emergence greenhouse pot test, herbicide alone and with safener
Type in all cases: in vivo
hard wheat = tested on: hard wheat
Description: (§1) The test plants are grown in pots under greenhouse conditions until a post-application stage. A standard soil is used as the cultivation substrate. At a post-emergence stage, the herbicides, both alone and in admixture with safeners, are applied to the test plants or to cultivated plants of which the seeds were dressed with safeners. Application is carried out using an emulsion prepared from a 25% emulsifiable concentrate (Example F1, b)) of the test substances using 500 l of water/ha. The rates of application are matched to the optimum dosages determined under field or greenhouse conditions. Evaluation of the tests is carried out after 9, 10, 20 and 24 days (100% action=complete destruction; 0% action=no phytotoxic action).

Alopecurus myosuroides = settings: 10 days after application
Description: as §1

winter barley = settings: 10 days after application
Description: as §1

summer wheat = tested on: summer wheat
Description: as §1

Agrostis spica-venti = settings: 10 days after application
Description: as §1

Lolium rigidum = tested on: Lolium rigidum
Description: as §1

winter wheat = settings: 10 days after application
Description: as §1

[1] = 9 days after application, herbicide alone 60 g a.i./ha
[2] = 9 days after application, herbicide alone 125 g a.i./ha
[3] = 9 days after application, herbicide alone 250 g a.i./ha
[4] = 20 days after application, herbicide alone 60 g a.i./ha
[5] = 20 days after application, herbicide alone 125 g a.i./ha
[6] = 20 days after application, herbicide alone 250 g a.i./ha

CCc1cc(C)cc(CC)c1C1C(=O)N2CCOCCN2C1=O [herbicide no. I1, 8-(2,6-diethyl-4-methylphenyl)tetrahydropyrazolo[1,2-d][1,4,5]-oxadiazepine-7,9-dione]
action (100% = complete destruction; 0% = no phytotoxic action) (hard wheat; [1]): 55% | action (100% = complete destruction; 0% = no phytotoxic action) (hard wheat; [2]): 60% | action (100% = complete destruction; 0% = no phytotoxic action) (hard wheat; [3]): 60% | action (100% = complete destruction; 0% = no phytotoxic action) (hard wheat; [4]): 20% | action (100% = complete destruction; 0% = no phytotoxic action) (hard wheat; [5]): 30% | action (100% = complete destruction; 0% = no phytotoxic action) (hard wheat; [6]): 45% | action (100% = complete destruction; 0% = no phytotoxic action) (Alopecurus myosuroides; herbicide alone 15 g a.i./ha): 50% | action (100% = complete destruction; 0% = no phytotoxic action) (Alopecurus myosuroides; herbicide alone 30 g a.i./ha): 80% | action (100% = complete destruction; 0% = no phytotoxic action) (Alopecurus myosuroides; herbicide alone 60 g a.i./ha): 80% | action (100% = complete destruction; 0% = no phytotoxic action) (Alopecurus myosuroides; herbicide alone 125 g a.i./ha): 90% | action (100% = complete destruction; 0% = no phytotoxic action) (winter barley; herbicide alone 15 g a.i./ha): 0% | action (100% = complete destruction; 0% = no phytotoxic action) (winter barley; herbicide alone 30 g a.i./ha): 0% | action (100% = complete destruction; 0% = no phytotoxic action) (winter barley; herbicide alone 60 g a.i./ha): 0% | action (100% = complete destruction; 0% = no phytotoxic action) (winter barley; herbicide alone 125 g a.i./ha): 0% | action (100% = complete destruction; 0% = no phytotoxic action) (summer wheat; [1]): 60% | action (100% = complete destruction; 0% = no phytotoxic action) (summer wheat; [2]): 60% | action (100% = complete destruction; 0% = no phytotoxic action) (summer wheat; [3]): 60% | action (100% = complete destruction; 0% = no phytotoxic action) (summer wheat; [4]): 20% | action (100% = complete destruction; 0% = no phytotoxic action) (summer wheat; [5]): 40% | action (100% = complete destruction; 0% = no phytotoxic action) (summer wheat; [6]): 50% | action (100% = complete destruction; 0% = no phytotoxic action) (Agrostis spica-venti; herbicide alone 15 g a.i./ha): 70% | action (100% = complete destruction; 0% = no phytotoxic action) (Agrostis spica-venti; herbicide alone 30 g a.i./ha): 70% | action (100% = complete destruction; 0% = no phytotoxic action) (Agrostis spica-venti; herbicide alone 60 g a.i./ha): 80% | action (100% = complete destruction; 0% = no phytotoxic action) (Agrostis spica-venti; herbicide alone 125 g a.i./ha): 80% | action (100% = complete destruction; 0% = no phytotoxic action) (Lolium rigidum; 10 days after application, herbicide alone 15 g a.i./ha): 60% | action (100% = complete destruction; 0% = no phytotoxic action) (Lolium rigidum; 10 days after application, herbicide alone 30 g a.i./ha): 60% | action (100% = complete destruction; 0% = no phytotoxic action) (Lolium rigidum; 10 days after application, herbicide alone 60 g a.i./ha): 60% | action (100% = complete destruction; 0% = no phytotoxic action) (Lolium rigidum; 10 days after application, herbicide alone 125 g a.i./ha): 80% | action (100% = complete destruction; 0% = no phytotoxic action) (Lolium rigidum; [4]): 95% | action (100% = complete destruction; 0% = no phytotoxic action) (Lolium rigidum; [5]): 100% | action (100% = complete destruction; 0% = no phytotoxic action) (Lolium rigidum; [6]): 100% | action (100% = complete destruction; 0% = no phytotoxic action) (winter wheat; herbicide alone 15 g a.i./ha): 0% | action (100% = complete destruction; 0% = no phytotoxic action) (winter wheat; herbicide alone 30 g a.i./ha): 5% | action (100% = complete destruction; 0% = no phytotoxic action) (winter wheat; herbicide alone 60 g a.i./ha): 10% | action (100% = complete destruction; 0% = no phytotoxic action) (winter wheat; herbicide alone 125 g a.i./ha): 20%
